# Measurements taken from the supplement of paper PMC11208160.
# Assay: recombinant barcode read abundance after kanamycin selection (control-corrected) (log10(CPM+1)); higher = more efficient recombination; sequences stand for … in AGTGCAGAGAAAATCGGCCAGTTTTCTCTGCCTGCAGTCCGCATGCCGT…AGATTTATGCAGCGGACTGCCTTTCTCCCAAAGTGATAAACCGGACAGTATCATGGACCGGTTTTCCCGGTAATCCGTATTTGCAAGGTTGGTTTCACT; site = the 11-nt target
# In short: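 Pooled E. coli screen pairing targets with IS621 bridge RNA target-binding loops. Each oligo (promoter, target, barcode, J23119-driven first 104 bridge RNA bases) was Gibson-cloned into a vector with the remaining 73 bp and T7-inducible recombinase, then co-electroporated with a donor plasmid. Two replicates each were plated on chloramphenicol/ampicillin LB agar (control) or chloramphenicol/ampicillin/kanamycin with 0.1 mM IPTG. Recombination efficiency is recombinant-junction barcode counts as CPM, averaged, control-corrected, reported as log10(CPM+1).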
# 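Further: IS621 recombinase and bridge RNA in Escherichia coli cells.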
row,Sequence,recombinant barcode read abundance (log10)
1,CGAGATCCTTGGGTTCTAACCTGTTGCAT (site CGAGATCCTAT),1.29
2,CGAGATCCTTGGGTTCTAACCTGTTGCAT (site CGAGGTACTAT),0
3,CGAGATCCTTGGGTTCTAACCTGTTGCCT (site CGACATCCTAG),0.214
4,CGAGATCCTTGGGTTCTAACCTGTTGCCT (site CGAGATCCTAG),0.678
5,CGAGGTACTTGGGTTCTAACCTGTTGCAT (site CGAGATCCTAT),0.0262
6,CGAGGTACTTGGGTTCTAACCTGTTGCAT (site CGAGGTACTAT),1.87
7,CGATACACTTGGGTTCTAACCTGTTGCCG (site CGATACACTCG),0.571
8,CGATACACTTGGGTTCTAACCTGTTGCCG (site CGATCCACTCA),0.052
9,CGATCACCTTGGGTTCTAACCTGTTGCCT (site CGATCACCTAG),0.105
10,CGATCACCTTGGGTTCTAACCTGTTGCCT (site TTCGGCTCTTA),0.665
11,CGATCCACTTGGGTTCTAACCTGTTGCTG (site CGATACACTCG),0.16
12,CGATCCACTTGGGTTCTAACCTGTTGCTG (site CGATCCACTCA),0.483
13,CGATGGACTTGGGTTCTAACCTGTTGCTG (site AAGCTTGCTAG),0.0171
14,CGATGGACTTGGGTTCTAACCTGTTGCTG (site CGATGGACTCA),1.81
15,CGATTTCCTTGGGTTCTAACCTGTTGCCT (site CGATTTCCTAG),0.0837
16,CGATTTCCTTGGGTTCTAACCTGTTGCCT (site CGATTTCCTAT),0.102
17,CGCAATGCTTGGGTTCTAACCTGTTGCCT (site CGAAATGCTAG),0.125
18,CGCAATGCTTGGGTTCTAACCTGTTGCCT (site CGCAATGCTAG),0.07
19,CGCAATGCTTGGGTTCTAACCTGTTGCCT (site CGGAATGCTAG),0.469
20,CGCAATGCTTGGGTTCTAACCTGTTGCCT (site CGTAATGCTAG),0.322
21,CGCAGCACTTGGGTTCTAACCTGTTGCCT (site AGCAGCACTAG),0.067
22,CGCAGCACTTGGGTTCTAACCTGTTGCCT (site CGCAGCACTAG),0.63

row,Sequence,recombinant barcode read abundance (log10)
1,CGCCAGCCTTGGGTTCTAACCTGTTGCCT (site CGCCAGCCTAG),0.0113
2,CGCCAGCCTTGGGTTCTAACCTGTTGCCT (site CGCCTGCCTAG),0
3,CGCCCTTCTTGGGTTCTAACCTGTTGCCT (site CGCCCTTCTAG),0.0296
4,CGCCCTTCTTGGGTTCTAACCTGTTGCCT (site TAAGGGACTTA),0.0823
5,CGCCGTACTTGGGTTCTAACCTGTTGCCT (site CGACGTACTAG),0.264
6,CGCCGTACTTGGGTTCTAACCTGTTGCCT (site CGCCGTACTAG),0.405
7,CGCCGTACTTGGGTTCTAACCTGTTGCCT (site CGGCGTACTAG),0.349
8,CGCCGTACTTGGGTTCTAACCTGTTGCCT (site CGTCGTACTAG),0.0659
9,CGCCTCACTTGGGTTCTAACCTGTTGCCT (site CGCCTCACTAG),0.0456
10,CGCCTCACTTGGGTTCTAACCTGTTGCCT (site CGCCTCCCTAG),0.152
11,CGCCTCACTTGGGTTCTAACCTGTTGCCT (site CGCCTCGCTAG),0.166
12,CGCCTCACTTGGGTTCTAACCTGTTGCCT (site CGCCTCTCTAG),0.0333
13,CGCGAGTCTTGGGTTCTAACCTGTTGCTG (site CGCGAGTCTCA),0.254
14,CGCGAGTCTTGGGTTCTAACCTGTTGCTG (site TAATTTGCTAG),0.142
15,CGCGCCACTTGGGTTCTAACCTGTTGCCT (site CGCGCCACTAG),0.383
16,CGCGCCACTTGGGTTCTAACCTGTTGCCT (site TAGCAGTCTGC),0.188
17,CGCGCCTCTTGGGTTCTAACCTGTTGCCG (site CGCGCCTCTCG),0.0377
18,CGCGCCTCTTGGGTTCTAACCTGTTGCCG (site GGCCCCTCTCG),0.362
19,CGCGGGGCTTGGGTTCTAACCTGTTGCCT (site CGCGCGGCTAG),0.392
20,CGCGGGGCTTGGGTTCTAACCTGTTGCCT (site CGCGGGGCTAG),0.662
21,CGCGGTCCTTGGGTTCTAACCTGTTGCCT (site CGCGATCCTAG),0.305
22,CGCGGTCCTTGGGTTCTAACCTGTTGCCT (site CGCGCTCCTAG),0.109

row,Sequence,recombinant barcode read abundance (log10)
1,CGCGGTCCTTGGGTTCTAACCTGTTGCCT (site CGCGGTCCTAG),0.0165
2,CGCGGTCCTTGGGTTCTAACCTGTTGCCT (site CGCGTTCCTAG),0.084
3,CGCTAGACTTGGGTTCTAACCTGTTGCCT (site CGCTAGACTAG),0.13
4,CGCTAGACTTGGGTTCTAACCTGTTGCCT (site CGCTCGACTAG),0.0159
5,CGCTAGACTTGGGTTCTAACCTGTTGCCT (site CGCTGGACTAG),0.0628
6,CGCTAGACTTGGGTTCTAACCTGTTGCCT (site CGCTTGACTAG),0.052
7,CGCTAGTCTTGGGTTCTAACCTGTTGCCT (site CGCTAGTCTAG),0.451
8,CGCTAGTCTTGGGTTCTAACCTGTTGCCT (site CGCTCGTCTAG),0.22
9,CGCTAGTCTTGGGTTCTAACCTGTTGCCT (site CGCTGGTCTAG),0.285
10,CGCTAGTCTTGGGTTCTAACCTGTTGCCT (site CGCTTGTCTAG),0.0462
11,CGCTCATCTTGGGTTCTAACCTGTTGCCT (site CGATCATCTAG),0.214
12,CGCTCATCTTGGGTTCTAACCTGTTGCCT (site CGCTCATCTAG),0.0416
13,CGCTCATCTTGGGTTCTAACCTGTTGCCT (site CGGTCATCTAG),0.154
14,CGCTCATCTTGGGTTCTAACCTGTTGCCT (site CGTTCATCTAG),0.211
15,CGCTCGACTTGGGTTCTAACCTGTTGCCT (site CGCTAGACTAG),0.596
16,CGCTCGACTTGGGTTCTAACCTGTTGCCT (site CGCTCGACTAG),0.0944
17,CGCTCGACTTGGGTTCTAACCTGTTGCCT (site CGCTGGACTAG),0.188
18,CGCTCGACTTGGGTTCTAACCTGTTGCCT (site CGCTTGACTAG),0.0207
19,CGCTGGCCTTGGGTTCTAACCTGTTGCTT (site CGCTGACCTAA),0.033
20,CGCTGGCCTTGGGTTCTAACCTGTTGCTT (site CGCTGCCCTAA),0.112
21,CGCTGGCCTTGGGTTCTAACCTGTTGCTT (site CGCTGGCCTAA),0.162
22,CGCTGGCCTTGGGTTCTAACCTGTTGCTT (site CGCTGTCCTAA),0.0658

row,Sequence,recombinant barcode read abundance (log10)
1,CGCTTGACTTGGGTTCTAACCTGTTGCCT (site CGCTAGACTAG),0.0413
2,CGCTTGACTTGGGTTCTAACCTGTTGCCT (site CGCTCGACTAG),0.164
3,CGCTTGACTTGGGTTCTAACCTGTTGCCT (site CGCTGGACTAG),0.131
4,CGCTTGACTTGGGTTCTAACCTGTTGCCT (site CGCTTGACTAG),0.00854
5,CGCTTTACTTGGGTTCTAACCTGTTGCCG (site CGCTTTACTCG),0.104
6,CGCTTTACTTGGGTTCTAACCTGTTGCCG (site TAGACATCTAC),0.0706
7,CGGAAATCTTGGGTTCTAACCTGTTGCCT (site CGAAAATCTAG),0.171
8,CGGAAATCTTGGGTTCTAACCTGTTGCCT (site CGCAAATCTAG),0.0224
9,CGGAAATCTTGGGTTCTAACCTGTTGCCT (site CGGAAATCTAG),0.127
10,CGGAAATCTTGGGTTCTAACCTGTTGCCT (site CGTAAATCTAG),0.0515
11,CGGAACACTTGGGTTCTAACCTGTTGCGG (site CGGAACACTCC),2.84
12,CGGAACACTTGGGTTCTAACCTGTTGCGG (site CGGCACACTCC),0.755
13,CGGAACACTTGGGTTCTAACCTGTTGCGG (site CGGGACACTCC),0.908
14,CGGAACACTTGGGTTCTAACCTGTTGCGG (site CGGTACACTCC),1.08
15,CGGAATGCTTGGGTTCTAACCTGTTGCCT (site CGAAATGCTAG),0.198
16,CGGAATGCTTGGGTTCTAACCTGTTGCCT (site CGCAATGCTAG),0.0762
17,CGGAATGCTTGGGTTCTAACCTGTTGCCT (site CGGAATGCTAG),1.38
18,CGGAATGCTTGGGTTCTAACCTGTTGCCT (site CGTAATGCTAG),0.0616
19,CGGACGACTTGGGTTCTAACCTGTTGCCT (site CGGACGACTAG),0.963
20,CGGACGACTTGGGTTCTAACCTGTTGCCT (site CGGACGCCTAG),0.0677
